Assay results taken from article PMC9525653, “Mutations conferring SO4^2− pumping ability on the cyanobacterial anion pump rhodopsin and the resultant unique features of the mutant” (Scientific Reports, 2022).

Tests used:
MrHR [1] = biological target: MrHR (Mastigocladopsis repens, UniProt A0A6P3CW41); assay: biochemical
MrHR [2] = biological target: MrHR (Mastigocladopsis repens, UniProt A0A6P3CW41, E182T); assay: biochemical
Sequence of MrHR (Mastigocladopsis repens, UniProt A0A6P3CW41, E182T) (A0A6P3CW41 1-232 E182T): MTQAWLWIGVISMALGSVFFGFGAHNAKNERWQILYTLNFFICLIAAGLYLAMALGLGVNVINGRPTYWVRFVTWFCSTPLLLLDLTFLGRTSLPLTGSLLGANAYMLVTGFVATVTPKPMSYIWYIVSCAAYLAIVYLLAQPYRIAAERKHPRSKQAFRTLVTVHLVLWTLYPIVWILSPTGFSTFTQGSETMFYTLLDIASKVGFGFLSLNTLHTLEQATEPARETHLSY

Sequence of MrHR (Mastigocladopsis repens, UniProt A0A6P3CW41) (A0A6P3CW41 1-232): as the sequence (A0A6P3CW41 1-232 E182T) above, with T182E counted along it

Q: `Cl` [Cl^−] was tested. Which Kd (MrHR [1]) did it give?
A: 4.98 mM

Q: What about the Kd (MrHR [2]) of the same compound?
A: 1.18 mM
